# Measured values: paper PMC6779124 (ACS infectious diseases, 2018)
# Target: Stk1 kinase domain (Staphylococcus aureus, UniProt A0A0H2XGG5)
# Assay: […]-ATP autoradiography, autophosphorylation and MBP phosphorylation
# Format: biochemical
# Details: […] kinase domain, […] MBP, […] ATP, […] MnCl2, pH […] °C
SMILES,"32P-ATP autoradiography, autophosphorylation and MBP phosphorylation","32P-ATP autoradiography, autophosphorylation and MBP phosphorylation (inhibitor […])"
"CN1CCN(c2ccc(Nc3nccc(-c4cnn5ncccc45)n3)cc2)CC1 [CAF045, N-(4-(4-Methylpiperazin-1-yl)phenyl)-4-(pyrazolo-[1,5-b]pyridazin-3-yl)pyrimidin-2-amine]","CAF045 and CAF077, displayed an intermediate phenotype with partial Stk1 inhibition",
"CN1CCN(c2ccc(Nc3nccc(-c4cnn5ncccc45)n3)cc2F)CC1 [CAF052, N-(3-Fluoro-4-(4-methylpiperazin-1-yl)phenyl)-4-(pyrazolo[1,5-b]pyridazin-3-yl)pyrimidin-2-amine]",,CAF052 and CAF078 robustly inhibited Stk1 kinase activity like the GW779439X control
"CN1CCN(c2cccc(Nc3nccc(-c4cnn5ncccc45)n3)c2)CC1 [CAF077, N-(3-(4-Methylpiperazin-1-yl)phenyl)-4-(pyrazolo-[1,5-b]pyridazin-3-yl)pyrimidin-2-amine]","CAF045 and CAF077, displayed an intermediate phenotype with partial Stk1 inhibition",
"CN1CCN(c2ccc(Nc3nccc(-c4cnn5ncccc45)n3)cc2C#N)CC1 [CAF078, 2-(4-Methylpiperazin-1-yl)-5-((4-(pyrazolo-[1,5-b]-pyridazin-3-yl)pyrimidin-2-yl)amino)benzonitrile]",CAF052 and CAF078 robustly inhibited Stk1 kinase activity like the GW779439X control,
